Here are results for four compounds from article PMC6271241, “Several Human Cyclin-Dependent Kinase Inhibitors, Structurally Related to Roscovitine, As New Anti-Malarial Agents” (Molecules, 2014).

The structures appear in SMILES notation. Where two headings read alike, the source gives them in different places.

Details of series [1]: method as in PMID 12809528. Particulars: cited from earlier work.
Series [2] relates to DYRK1A. Details: method as in PMID 17850214. The note with it: cited from earlier work.
Series [3] relates to Pf3D7. Briefly: [3H]hypoxanthine incorporation growth assay, Pf3D7. In kind it is cell-based, Plasmodium falciparum. The note with it: Plasmodium falciparum. Here is the method: (§1) A selection of 15 molecules 4b–c, 10–13 representing the different 2,6,9-trisubstituted purine series, including newly synthesized products was screened as anti-malarial agents on two different P. falciparum strains, Pf3D7, a standard drug-sensitive African stain, and Pf7G8, a brazilian chloroquino-resistant strain (Figure 3). The compound activity was evaluated during the parasitic erythocytic cycle, by the means of a [^3H] hypoxanthine incorporation assay. It is directly correlated to parasite viability, as described in the experimental section.
(§2) At first, the activity of the fifteen compounds was screened at three different concentrations (10, 50 and 100 µM) on Pf3D7. Chloroquine which is not a kinase inhibitor, but which is the antimalarial reference drug was used as the positive control. […] Chloroquine was again used as a positive control.
(§3) Compounds were tested against synchronous ring-stage parasites of Pf3D7 and Pf7G8 strains. Drugs testing were carried out in 96-well microtiter plates. The chloroquine (CQ) diphosphate was purchased from Sigma (Lyon, France). […] For each assay, each drug dilution was analyzed in triplicate.
(§4) For the in vitro isotopic microtest, 200 µL of the suspension of synchronous parasitized red blood cells with >90% of the parasites at the ring stage (final parasitaemia, 0.3%; final haematocrit, 4%) per well were plated in 96-well plates that contained serial CQ or compounds concentrations. […] The plates were incubated at 37 °C, in an atmosphere of 5% O2, 5% CO2, and 90% N2 for 48 h. Immediately after incubation, plates were frozen and then thawed to lyse the erythrocytes. Cultures were harvested onto glass fiber filters and washed using a cell harvester (FilterMAT; Skatron Instruments, Dalsletta, Norway). The dried fiber filter papers were mixed with 2 mL of scintillation fluid (OptiScint; Perkin-Elmer, Waltham, UK). […] The initial value and the asymptotic result for high concentrations were fixed to 0% and 100%, respectively, available on the web.

Series [4] concerns Pf7G8. Briefly: [3H]hypoxanthine incorporation growth assay, Pf7G8. It is filed as cell-based, Plasmodium falciparum. The note with it: Plasmodium falciparum. The protocol: as §1, §2, §3, §4
For series [5], the target named is CDK1/cyclin B. Briefly: CDK1/cyclin B kinase assay ([γ-33P] ATP, histone H1). In kind it is biochemical, starfish. Particulars: Table A1; read-out: IC50 on HsCDKs HsCDK1.
The subject of series [6] is recombinant PfPK5. Also on record: method as in PMID 10722743, PMID 11434907. Particulars: cited from earlier work.
Series [7] relates to Pfmrk. Details: method as in PMID 10722743, PMID 11434907. The note with it: recombinant; cited from earlier work.
The target of series [8] is CDK1/cyclin B. As to the kind of experiment: CDK1/cyclin B kinase assay ([γ-33P] ATP, histone H1). Particulars: 15 µM ATP, Table 1. In kind it is biochemical, starfish. Here is the method:
(§5) CDK1/cyclin B (M phase starfish oocytes, native), CDK2/cyclin A (human, recombinant) and CDK5/p25 (human, recombinant) were prepared as previously described. […] ATP (3000 Ci/mmol; 10 mCi/mL) in a final volume of 30 µL. After 30 min incubation at 30 °C, 25 µL aliquots of supernatant were spotted onto 2.5 cm × 3 cm pieces of Whatman P81 phosphocellulose paper, and, 20 s later, the filters were washed five times (for at least 5 min each time) in a solution of 10 mL of phosphoric acid/liter of water. The wet filters were counted in the presence of 1 mL of ACS (Amersham, Pittsburgh, PA, USA) scintillation fluid.

The target in series [9] is T1, CDK5/p25 (Homo sapiens, UniProt Q00535).
T1 construct: made in house
Briefly: CDK5/p25 kinase assay ([γ-33P] ATP, histone H1). In kind it is biochemical. Particulars: CDK5/p25, 15 µM ATP; Table 1; read-out: IC50 CDK5. The protocol:
as §5

For series [10], the system named is CK1δ/ε. Details: method as in PMID 18698753. The note with it: read-out: IC50 CK1; cited from earlier work.
The test system of series [11] is N2A-APP659 cell model. Also on record: method as in PMID 18698753. The note with it: dose-dependent; cited from earlier work.
The target of series [12] is CK1δ/ε. As to the kind of experiment: CK1δ/ε kinase assay (CKS peptide). Particulars: read-out: IC50 CK1δ/ε; 15 µM ATP; Table 1.
Method: (§6) The effects on CDK1/cyclin B, CDK2/cyclin A, CDK5/p25, GSK-3αβ, CK1δ/ε and DYRK1A kinase activity are reported as the IC50 values calculated from dose-response curves. The inhibition was determined covering a range of concentrations of the compounds by means of a [γ-^33P] assay as described in the experimental section.
(§7) Controls were performed with appropriate dilutions of DMSO.
For series [13], the target named is GSK-3α/β. As to the kind of experiment: GSK-3α/β kinase assay (GS-1 peptide). The note with it: read-out: IC50 GSK-3αβ; 15 µM ATP; Table 1; >10 = no activity at 10 µM.
Method: as §6, §7
GSK-3α/β (porcine brain, native) was assayed, as described for CDK1 but in Buffer A and using a GSK-3 specific substrate (GS-1: [sequence]pEDEEE) (pS stands for phosphorylated serine).
For series [14], the system named is CK1. Also on record: method as in PMID 10662688. Particulars: cited from earlier work.

T1 sequence (Q00535 whole entry): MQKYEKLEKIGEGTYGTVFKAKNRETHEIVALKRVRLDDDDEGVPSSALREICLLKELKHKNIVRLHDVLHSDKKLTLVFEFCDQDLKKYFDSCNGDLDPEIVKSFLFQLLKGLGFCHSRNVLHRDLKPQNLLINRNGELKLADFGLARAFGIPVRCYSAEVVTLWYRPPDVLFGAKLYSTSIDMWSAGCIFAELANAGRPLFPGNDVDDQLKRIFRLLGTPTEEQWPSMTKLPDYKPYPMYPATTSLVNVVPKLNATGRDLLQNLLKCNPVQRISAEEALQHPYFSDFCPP
T1 sequence (Q15078 99-307 partner limits assumed): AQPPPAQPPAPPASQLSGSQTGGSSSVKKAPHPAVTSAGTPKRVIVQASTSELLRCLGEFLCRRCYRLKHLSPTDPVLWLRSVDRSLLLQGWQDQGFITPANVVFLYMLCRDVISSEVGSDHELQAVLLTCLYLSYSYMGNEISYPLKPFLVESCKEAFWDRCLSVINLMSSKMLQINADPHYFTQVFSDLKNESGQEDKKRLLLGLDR

Regarding `CC[C@H](CO)Nc1nc(NCc2ccccc2)c2ncn(C(C)C)c2n1` [Compound 1, (R)-roscovitine], the maximal tolerated dose in series [1] (human, daily oral dose) is on record as 2 g. The oral bioavailability entry in series [1] (humans, oral administration) is recorded as “good oral bioavailability”. For the same compound, in series [2] (at 1 µM), the “remaining DYRK1A kinase activity” value is given as 87%.

For `CC(C)[C@H](CO)Nc1nc(Nc2cccc(Cl)c2)c2ncn(C(C)C)c2n1` [Compound 2a, purvalanol A, reference compound], the IC50 was 4.58 µM in series [3] (48 h, read-out: Growth IC50 Pf3D7); 4.58 µM in [3] (read-out: IC50 on P. falciparum Strains Pf3D7); 8.12 µM in series [4] (48 h, read-out: Growth IC50 Pf7G8); 8.12 µM in series [4] (read-out: IC50 on P. falciparum Strains Pf7G8); 4 nM in [5]; 8 µM in series [6]. Moreover, the IC50 in [7] was 26 µM. The “remaining DYRK1A kinase activity” value in series [2] (at 0.1 µM) was 88%.

For the compound `CC[C@H](CO)Nc1nc(Nc2cccc(-c3ccccn3)c2)c2ncn(C(C)C)c2n1` [Compound 3], the IC50 is 220 nM in series [8]; 80 nM in series [9]; 14 nM in series [10]; 10 nM in [12]; > 10 µM in [13]. The amyloïd-β production entry in series [11] is “antagonizes amyloïd-β production”.

Take `NC1=NC(=O)/C(=C2\CCNC(=O)c3[nH]c(Br)cc32)N1` [hymenialdisine]: the IC50 in series [14] is 30 nM.
